We go through 34 compounds from ChEMBL document CHEMBL1154476 (Eur J Med Chem, 2008).

The structures appear in SMILES notation. pIC50: −log10 of the molar value.

In the experiment the target is T1, Ribosyldihydronicotinamide dehydrogenase [quinone] (Homo sapiens, UniProt P16083).
T1 sequence (P16083 whole entry): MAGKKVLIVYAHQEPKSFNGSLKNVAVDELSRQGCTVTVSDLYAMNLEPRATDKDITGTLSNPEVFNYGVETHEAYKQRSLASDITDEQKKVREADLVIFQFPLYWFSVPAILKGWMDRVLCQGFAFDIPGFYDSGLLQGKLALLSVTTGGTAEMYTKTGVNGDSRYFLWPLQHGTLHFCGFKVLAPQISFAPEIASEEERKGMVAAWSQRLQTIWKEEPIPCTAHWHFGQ
Nature of the experiment: Displacement of [125I]iodomelatonin from MT3/QR2 melatonin binding site expressed in CHO cells. In kind it is cell-based. On the technique in general: Loss of bound radioactivity is the signal in a displacement assay; it reports binding, not function.
With `COc1ccc2c(CCNC(=O)C3CCC3)cccc2c1`, the pIC50 (usually the IC50 on a negative log10 scale, so that one unit is a factor of ten) is 7.15. The same measure for `COc1ccc2[nH]cc(CCNC(C)=O)c2c1[N+](=O)[O-]`: 8.92. To `COc1ccc2occ(CCNC(C)=O)c2c1` belongs 7.19; to `COc1ccc2c(c1)c(CCNC(C)=O)cn2C`, 8.55; to `COc1ccc2cccc(CCNC(=O)c3ccccc3)c2c1`, 7.54. To `COc1ccc2cccc(CCNC(=O)C(C)C)c2c1` belongs 7.36; to `CC(=O)NCCc1c[nH]c2ccc([N+](=O)[O-])cc12`, 7.38.

Consider `CS(=O)(=O)NCCc1cccc2ccccc12`, for which the pIC50 is 7.55. To `COC(=O)Nc1ccc2occ(CCNC(C)=O)c2c1` belongs 7.80; to `COC(=O)Nc1ccc2occ(CCNC(=O)c3ccccc3)c2c1`, 7.17; to `CNC(=O)c1ccc2cccc(CNC(C)=O)c2c1`, 7.92. The same measure for `CC(=O)NCCc1cccc2ccc([S+](C)[O-])cc12` (centres undefined): 7.43; for `COC(=O)Nc1ccc2cccc(CNC(=O)C3CC3)c2c1`: 7.62. To `CSc1ccc2cccc(CCNC(C)=O)c2c1` belongs 7.74; to `CCOC(=O)c1[nH]c2ccc(OC)cc2c1CCNC(C)=O`, 8.52. `COc1ccc2cccc(CC3=NC(=O)NC3=O)c2c1` showed a pIC50 of 7.21. As to `COc1ccc2cccc(CCN3CCOC3=O)c2c1`, the pIC50 was 7.85. In turn, `COc1ccc2cccc(CCNC(=O)c3ccco3)c2c1` had a pIC50 of 7.27. In turn, `O=C(NCCc1cccc2ccc(O)cc12)c1ccco1` showed a pIC50 of 7.96. The same measure for `CC(=O)NCCc1cccc2ccc(S(N)(=O)=O)cc12`: 7.49. To `CC(C)(C)OC(=O)NCCc1cccc2ccc(O)cc12` belongs 7.29. For the compound `CNS(=O)(=O)c1ccc2cccc(CCNC(=O)c3ccco3)c2c1`, the pIC50 is 8.04. To `CC(=O)NCCc1cccc2ccc(S(C)(=O)=O)cc12` belongs 7.68; to `C=CCC(=O)NCCc1cccc2ccc(O)cc12`, 8.11; to `COC(=O)c1ccc2cccc(CNC(=O)c3ccco3)c2c1`, 7.28. To `C=CCC(=O)NCCc1coc2ccc(NC(=O)OC)cc12` belongs 7.96; to `COC(=O)c1ccc2occ(CCNC(=O)C3CCCC3)c2c1`, 7.74. To `COC(=O)c1ccc2occ(CCNC(C)=O)c2c1` belongs 7.85. Consider `NC(=O)c1ccc2occ(CCNC(=O)c3ccco3)c2c1`, for which the pIC50 is 7.17. Against the preceding compound, the pIC50 is 0.68 log units lower. The same measure for `COc1ccc2cccc(CCNC(=O)CN3CCCC3=O)c2c1`: 7.21; for `COC(=O)Nc1ccc2[nH]c(I)c(CCNC(C)=O)c2c1`: 9.52; for `COC(=O)Nc1ccc2occ(CCNC(=O)C(C)C)c2c1`: 7.64. The compound `COC(=O)Nc1ccc2occ(CCNC(=O)c3ccco3)c2c1` showed a pIC50 of 7.25. This pIC50 is 0.39 log units lower than that of the compound before. On to `COc1ccc2c(c(CCNC(C)=O)cn2C)c1[N+](=O)[O-]`, for which the negative logarithm of the IC50 (pIC50) was 9.51. This pIC50 lies 2.26 log units higher than the previous one.
